Earlier results on two sequences are cited in paper PMC8492600 (Cell Systems, 2021).

One data set has as its target HLA-A*02:01 (Homo sapiens, UniProt P04439, D140Y/D185E/D98H/E176V/E277Q/G131W/G231S/I119V/I121R/I166T/I218V/L300P/L318F/N151K/N90K/P208A/P217A/Q86G/Q94H/R138H/R169H/T345S).
In another data set the target is HLA-B*40:01 (Homo sapiens, UniProt P01889, A65T/A93T/A95T/D138N/D98Y/E176V/E69K/N87E/Q56L/Q94N/R180L/S121R/S35A/S48T/T167S/V36M/W171L/Y33H/Y91S).

In the case of GFMWLSYFI, the “binding of the mutated epitope to HLA-A*02:01” value at HLA-A*02:01 is listed as “lose binding”.

In the case of MKVTPSGTWL, the “binding of the mutated epitope to HLA-B*40:01” value on HLA-B*40:01 is listed as “lose binding”.
